Results published in patent publication US6509464B1, “FKBP inhibitors” (Pfizer Inc, priority 1999, dated 2003).

Tests used:
Assay type in all cases: biochemical
[1] = biological target: T1, human recombinant FKBP-12 (Homo sapiens, UniProt P62942); assay: coupled PPIase (rotamase) assay, IC50 determination vs. FKBP-12; settings: tested vs. FKBP-12 and/or FKBP-52; succinyl-AFPF-pNA substrate, chymotrypsin-coupled, 10° C., pH 8.0
Text: (§1) The affinity of the compounds of the formula (I) for FKBP-12 can be determined in vitro in a coupled calorimetric PPlase assay using similar procedures to published methods (e.g. see Kofron, J. L., et al., Biochemistry, 1991, 30, 6127-6134, Zarnt, T., et al., Biochem. J. 1995, 305, 159-164, Holt, D. A., et al., J. Am. Chem. Soc., 1993, 115, 9925-9938). In these methods, the cis-trans isomerisation of a hydrophobic amino acid-proline bond in a tetrapeptide substrate (e.g. the phenylalanine-proline bond in N-succinyl-ala-phe-pro-phe-p-nitroanilide [succinyl-AFPF-pNA]) can be determined by monitoring cleavage of pNA from the transPro-containing peptide by an excess of chymotrypsin.
The IC50 (the concentration of the compound of the formula (I) producing 50% inhibition) values were determined using the following assay methodology. Assay buffer (2.175 ml) (50 mM 4-(2-hydroxyethyl)-1-piperazineethanesulphonic acid (HEPES), 100 mM NaCl, 1 mM dithiothreitol (DTT), pH 8.0) is equilibrated to 10° C. in a cuvette. 12.5 μl of a solution of the present compound in DMSO, 250 μl of a 60 mg/ml solution of α-chymotrypsin in 1 mM aqueous hydrochloric acid and then 50 μl of a solution of human recombinant FKBP-12 (4.5 μM) in assay buffer are added and mixed. The reaction is initiated by addition of 12.5 μl of a solution of 20 mM succinyl-AFPF-pNA in DMSO. The absorbance at 390 nm is monitored for one minute collecting data every 0.25 second. Data are fitted with a first order rate equation with offset and the rate constant obtained corrected for the rate of uncatalysed isomerisation of the substrate. The rate constant determined at different inhibitor concentrations (10 nM to 100 μM) is expressed as % inhibition of the control rate constant. The IC50 is estimated using a nonlinear least squares curve fitting routine of the sigmoidal dose response data.

[2] = biological target: T1, human recombinant FKBP-12; assay: coupled PPIase (rotamase) assay, Ki,app determination vs. FKBP-12; settings: tested vs. FKBP-12 and/or FKBP-52; FKBP-12 method; succinyl-AFPF-pNA, 10° C., pH 8.0
Text: as §1
(§2) Assay buffer (2.175 ml) (50 mM HEPES, 100 mM NaCl, 1 mM DTT, pH 8.0) is equilibrated to 10° C. in a cuvette. 12.5 μl of a solution of the present compound in DMSO, 250 μl of a 60 mg/ml solution of α-chymotrypsin in 1 mM aqueous hydrochloric acid and then 50 μL of a solution of human recombinant FKBP-12 (1.5 μM) in assay buffer are added and mixed. The reaction is initiated by adding 12.5 μl of a solution of anhydrous succinyl-AFPF-pNA (100 μM final concentration) in a 400 mM solution of LiCl in trifluoroethanol. The absorbance at 390 nm is monitored for 3 minutes collecting data every 0.5 second. Data are fitted with a first order rate equation with offset and the initial velocity (v) is calculated from the concentration of cis (re leu-pro bond)-succinyl-AFPF-pNA at to and the first order rate constant at different inhibitor concentrations (I). Data in the form vinh/vcontrol v. [I] are fitted with an equation for reversible tight binding inhibition to generate values for Kiapp (see Morrison, J. F., et al, Comments Mol. Cell Biophys., 1985, 2, 347-368). This analysis is used when the Ki,app approaches the concentration of FKBP-12 in the assay (30 nM).

[3] = biological target: T2, human recombinant FKBP-52 (Homo sapiens, UniProt Q02790); assay: coupled PPIase (rotamase) assay, Ki,app determination vs. FKBP-52; settings: tested vs. FKBP-12 and/or FKBP-52; FKBP-52 method; succinyl-AFPF-pNA, 10° C., pH 8.0
T2 sequence (Q02790 1-459): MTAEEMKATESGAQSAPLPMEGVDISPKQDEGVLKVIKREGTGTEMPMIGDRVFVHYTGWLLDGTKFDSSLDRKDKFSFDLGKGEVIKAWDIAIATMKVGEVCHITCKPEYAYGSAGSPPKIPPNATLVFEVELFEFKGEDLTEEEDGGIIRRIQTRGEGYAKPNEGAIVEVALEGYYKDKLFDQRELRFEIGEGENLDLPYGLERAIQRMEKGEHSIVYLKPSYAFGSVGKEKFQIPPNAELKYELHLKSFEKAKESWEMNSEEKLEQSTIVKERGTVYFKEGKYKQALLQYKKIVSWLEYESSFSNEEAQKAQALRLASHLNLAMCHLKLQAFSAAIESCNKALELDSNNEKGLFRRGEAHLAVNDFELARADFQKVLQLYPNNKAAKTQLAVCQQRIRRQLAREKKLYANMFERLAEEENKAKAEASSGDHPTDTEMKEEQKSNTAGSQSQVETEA
Protocol: as §2
The same methodology is used to measure Ki,app for FKBP-52, with the following modifications: 40 μl human recombinant FKBP-52 (5.2 μM) is substituted for FKBP-12 and 2.185 ml assay buffer are used in the assay.

T1 sequence (P62942 whole entry): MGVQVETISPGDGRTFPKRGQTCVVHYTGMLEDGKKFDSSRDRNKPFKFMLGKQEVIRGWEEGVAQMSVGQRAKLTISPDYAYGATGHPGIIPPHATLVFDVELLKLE

C[C@@H]1CCC[C@H](C)N1CCNC(=O)[C@@H]1CCCCN1c1nc2ccccc2o1 [Example 3, (2S)-1-(1,3-Benzoxazol-2-yl)-N^2-2-[(cis)-2,6-dimethyl-1-piperidinyl]ethyl-2-piperidinecarboxamide]
< 1000 nM: IC50 [1] | Ki [2] | Ki [3]

CC(C)NC(=O)N1C[C@@H](C)N(CCNC(=O)[C@@H]2CCCCN2c2nc3ccccc3o2)[C@@H](C)C1 [Example 11, (cis)-4-[2-([(2S)-1-(1,3-Benzoxazol-2-yl)-2-piperidinyl]carbonylamino)ethyl]-N^1-isopropyl-3,5-dimethyl-1-piperazinecarboxamide]
< 1000 nM: IC50 [1] | Ki [2] | Ki [3]

CC1COCC(C)N1CCNC(=O)[C@@H]1CCCCN1c1nc2ccccc2o1 (stereo partly drawn) [Example 12, (2S)-1-(1,3-Benzoxazol-2-yl)-N^2-[2-(3,5-dimethylmorpholino)ethyl]-2-piperidinecarboxamide]
< 1000 nM: IC50 [1] | Ki [2] | Ki [3]

C[C@@H]1CCC[C@H](C)N1CCNC(=O)[C@@H]1CCCCN1c1nc2ccccc2[nH]1 [Example 17]
< 1000 nM: IC50 [1] | Ki [2] | Ki [3]

COc1ccc2[nH]c(N3CCCC[C@H]3C(=O)NCCN3[C@H](C)CCC[C@@H]3C)nc2c1 [Example 18]
< 1000 nM: IC50 [1] | Ki [2] | Ki [3]

C[C@@H]1CCC[C@H](C)N1CCNC(=O)[C@@H]1CCCCN1c1nc2ccc(F)cc2[nH]1 [Example 19]
< 1000 nM: IC50 [1] | Ki [2] | Ki [3]

Cc1cccc2[nH]c(N3CCCC[C@H]3C(=O)NCCN3[C@H](C)CCC[C@@H]3C)nc12 [Example 27]
< 1000 nM: IC50 [1] | Ki [2] | Ki [3]

Cc1cc2nc(N3CCCC[C@H]3C(=O)NCCN3[C@H](C)CCC[C@@H]3C)oc2cc1C [Example 31, (2S)-N^2-2-[(cis)-2,6-Dimethyl-1-piperidinyl]ethyl-1-[5,6-dimethyl-1,3-benzoxazol-2-yl]-2-piperidinecarboxamide]
< 1000 nM: IC50 [1] | Ki [2] | Ki [3]
